Experiments:
[1] = tested on: Viola arvensis; assay: Actual field condition test of Example 2 (turf grass field); assay type: in vivo; details: 50 g ai/ha
Procedure: The test chemical of the Example 2 was applied to a turf grass field, in which Viola arvensis as a representative hard-to-control perennial weed is thriving predominantly, to evaluate a weed control effect of the compound. The experiment was carried out from May to June, 2007 in the turf grass field within Korea Research Institute of Bioscience and Biotechnology (52, Ueun-dong, Yusong-gu, Daejon, South Korea). Fourteen days after the chemical application, the turf grass was cut once.

[2] = tested on: Bentgrass; assay: Turf grass selectivity, greenhouse pot test; assay type: in vivo, Agrostris palustris
Description: Turf mats of Zoysia grass, bentgrass, Kentucky bluegrass, or perennial rye grass known as cool season turfgrass or western grass were purchased and cut into a piece having 10 cm×20 cm size. Then, each piece was transplanted in a rectangular plastic pot (surface area of 300 cm^2) in which sandy loam and mixed top soil (Boo-Nong Top Soil No. 3, for horticultural use) are filled in 1:1 ratio. After the transplantation, the grasses were cut once a week to maintain the blade height at 0.5-1.0 cm and cultivated for one month in a green house of which temperature was kept at 25˜30° C. for daytime and 15˜25° C. for nighttime, respectively. Then, the ‘test chemical’ of the above Examples 1 and 2 or ‘control chemical’ was applied thereto in an amount of 400, 200, 100, 50, 25, 12, 6, 3 g ai/ha. As a “control chemical”, pyrazolsulfuron ethyl wettable agent (manufactured by Dongbu Fine Chemicals; herein after, referred to as ‘control chemical No. 1’) and flazasulfuron (manufactured by Dongbu HiTek; herein after, referred to as ‘control chemical No. 2’), both sulfonylurea herbicides for a turf grass, were used. Application was carried out by using a track sprayer (R&D Sprayer, USA) equipped with Teejet 8002 nozzle (Spraying Systems Co., USA), and the application amount was adjusted to 2,000 L/ha, which is a typical application amount for a golf course in Korea. Application solution was prepared by diluting the “test chemical” or the “control chemical” with tap water. […] The test was repeated three times in a random arrangement and the results are given in average value of each test (see Table 2 below).

[3] = tested on: Cyperus amuricus; assay: Weed spectrum, greenhouse pot test; assay type: in vivo; details: two weeks after application
Procedure, shortened: (§1)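 Seeds of each species were sown into pots filled with sandy loam and top soil (1:1) and kept in a greenhouse. Test chemical was sprayed immediately after sowing (pre-emergence) or after two weeks' growth to about three-leaf stage (post-emergence). Efficacy was judged visually after two weeks, from 0 (none) to 100.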

[4] = tested on: Veronica officinalis; assay: Weed spectrum, greenhouse pot test; assay type: in vivo; details: two weeks after application
Procedure, shortened: as §1

[5] = tested on: Portulaca oleracea; assay: Weed spectrum, greenhouse pot test; assay type: in vivo; details: two weeks after application
Procedure, shortened: as §1

[6] = tested on: cool season turfgrass; assay: Turf grass selectivity, summary for cool season turfgrass; assay type: in vivo; details: 25 g ai/ha or more
Description: Turf mats of Zoysia grass, bentgrass, Kentucky bluegrass, or perennial rye grass known as cool season turfgrass or western grass were purchased and cut into a piece having 10 cm×20 cm size. Then, each piece was transplanted in a rectangular plastic pot (surface area of 300 cm^2) in which sandy loam and mixed top soil (Boo-Nong Top Soil No. 3, for horticultural use) are filled in 1:1 ratio. After the transplantation, the grasses were cut once a week to maintain the blade height at 0.5-1.0 cm and cultivated for one month in a green house of which temperature was kept at 25˜30° C. for daytime and 15˜25° C. for nighttime, respectively. Then, the ‘test chemical’ of the above Examples 1 and 2 or ‘control chemical’ was applied thereto in an amount of 400, 200, 100, 50, 25, 12, 6, 3 g ai/ha. As a “control chemical”, pyrazolsulfuron ethyl wettable agent (manufactured by Dongbu Fine Chemicals; herein after, referred to as ‘control chemical No. 1’) and flazasulfuron (manufactured by Dongbu HiTek; herein after, referred to as ‘control chemical No. 2’), both sulfonylurea herbicides for a turf grass, were used. Application was carried out by using a track sprayer (R&D Sprayer, USA) equipped with Teejet 8002 nozzle (Spraying Systems Co., USA), and the application amount was adjusted to 2,000 L/ha, which is a typical application amount for a golf course in Korea. […]

## COc1nc(C)nc(NC(=O)NS(=O)(=O)c2cscc2C2(CF)OCCO2)n1 [Example 2, 3-(2-fluoromethyl-1,3-dioxalan-2-yl)-N-[(4-methoxy-6-methyltriazin-2-yl)aminocarbonyl]4-thiophene sulfonamide]
[1]; After 7 days
  Effect on Viola arvensis: 20
[1]; After 14 days
  Effect on Viola arvensis: 50
[2]; 3 g ai/ha, 2 weeks
  phytotoxicity (visual assessment 0-10): 3
[2]; 3 g ai/ha, 4 weeks
  phytotoxicity (visual assessment 0-10): 1
[2]; 6 g ai/ha, 2 weeks
  phytotoxicity (visual assessment 0-10): 5
[2]; 6 g ai/ha, 4 weeks
  phytotoxicity (visual assessment 0-10): 3
[2]; 12 g ai/ha, 2 weeks
  phytotoxicity (visual assessment 0-10): 7
[2]; 12 g ai/ha, 4 weeks
  phytotoxicity (visual assessment 0-10): 5
[2]; 25 g ai/ha, 2 weeks
  phytotoxicity (visual assessment 0-10): 10
[2]; 25 g ai/ha, 4 weeks
  phytotoxicity (visual assessment 0-10): 10
[2]; 50 g ai/ha, 2 weeks
  phytotoxicity (visual assessment 0-10): 10
[2]; 50 g ai/ha, 4 weeks
  phytotoxicity (visual assessment 0-10): 10
[2]; 100 g ai/ha, 2 weeks
  phytotoxicity (visual assessment 0-10): 10
[2]; 100 g ai/ha, 4 weeks
  phytotoxicity (visual assessment 0-10): 10
[2]; 200 g ai/ha, 2 weeks
  phytotoxicity (visual assessment 0-10): 10
[2]; 200 g ai/ha, 4 weeks
  phytotoxicity (visual assessment 0-10): 10
[2]; 400 g ai/ha, 2 weeks
  phytotoxicity (visual assessment 0-10): 10
[2]; 400 g ai/ha, 4 weeks
  phytotoxicity (visual assessment 0-10): 10
[3]; Post-emergence, 12 g ai/ha
  efficacy (0-100 scale): 30
[3]; Post-emergence, 25 g ai/ha
  efficacy (0-100 scale): 40
[3]; Post-emergence, 50 g ai/ha
  efficacy (0-100 scale): 50
[3]; Post-emergence, 100 g ai/ha
  efficacy (0-100 scale): 50
[3]; Pre-emergence, 12 g ai/ha
  efficacy (0-100 scale): 20
[3]; Pre-emergence, 25 g ai/ha
  efficacy (0-100 scale): 30
[3]; Pre-emergence, 50 g ai/ha
  efficacy (0-100 scale): 50
[3]; Pre-emergence, 100 g ai/ha
  efficacy (0-100 scale): 60
[4]; Post-emergence, 12 g ai/ha
  efficacy (0-100 scale): 20
[4]; Post-emergence, 25 g ai/ha
  efficacy (0-100 scale): 20
[4]; Post-emergence, 50 g ai/ha
  efficacy (0-100 scale): 20
[4]; Post-emergence, 100 g ai/ha
  efficacy (0-100 scale): 20
[4]; Pre-emergence, 12 g ai/ha
  efficacy (0-100 scale): 30
[4]; Pre-emergence, 25 g ai/ha
  efficacy (0-100 scale): 30
[4]; Pre-emergence, 50 g ai/ha
  efficacy (0-100 scale): 40
[4]; Pre-emergence, 100 g ai/ha
  efficacy (0-100 scale): 50
[5]; Post-emergence, 12 g ai/ha
  efficacy (0-100 scale): 70
[5]; Post-emergence, 25 g ai/ha
  efficacy (0-100 scale): 90
[5]; Post-emergence, 50 g ai/ha
  efficacy (0-100 scale): 100
[5]; Post-emergence, 100 g ai/ha
  efficacy (0-100 scale): 100
[5]; Pre-emergence, 12 g ai/ha
  efficacy (0-100 scale): 90
[5]; Pre-emergence, 25 g ai/ha
  efficacy (0-100 scale): 90
[5]; Pre-emergence, 50 g ai/ha
  efficacy (0-100 scale): 100
[5]; Pre-emergence, 100 g ai/ha
  efficacy (0-100 scale): 100
[6]
  phytotoxicity to cool season turfgrass: completely withered

Source: patent US20100035755A1, “METHOD OF CONTROLLING WEEDS IN A TURF GRASS BY USING SULFONYLUREA COMPOUNDS” (Moghu Research Center Ltd., priority 2008, published 2010)
